Assay: Non-human primate combination therapy: PLX3397, CD20 CAR T cells and cyclophosphamide preconditioning
Type: in vivo
Conditions: PLX3397 40 mg/kg twice daily from 30 days before to 21 days after cells; Rhesus macaques
Method: Animal subjects of the non-human primate (NHP), Macaca mulatta, which in aspects closely recapitulates the human immune system are administered cell therapy (T cells expressing a CAR targeting CD20), following administration of an agent to ameliorate toxicity. Thirty days prior to the initiation of cell therapy, T cells are isolated from peripheral blood of Rhesus macaques (n=3) and engineered via transduction with a viral vector encoding a CD20 chimeric antigen receptor (CAR), which is a tumor-associated or tumor-specific antigen, and optionally a detectable marker, such as GFP. […]
After preconditioning treatment, subjects receive a first dose of CAR-expressing cells by infusion that is less than or equal to about 1×10^7 cells/kg body weight at day 0. […] Optionally, at seven days after the administration of the of cells, the CAR-expressing cells are detected by flow cytometry and quantitative polymerase chain reaction (qPCR) to measure in vivo proliferation and persistence of the administered cells and B cell aplasia. […] Recipient animals are monitored for clinical signs and symptoms of one or more toxic outcomes or toxicities such as CRS and neurotoxicity, and data are collected longitudinally to determine CAR T cell expansion and persistence, B cell aplasia, as well as clinical labs of CRS and cytokine levels. […]

With `FC(F)(F)c1ccc(CNc2ccc(Cc3c[nH]c4ncc(Cl)cc34)cn2)cn1` [PLX3397, 5-((5-chloro-1H-pyrrolo[2,3-b]pyridin-3-yl)methyl)-N-((6-(trifluoromethyl)pyridin-3-yl)methyl)pyridin-2-amine] the “symptoms of toxicity (CRS, neurotoxicity) after CAR T cell therapy” value was “reduced or prevented”.

— US20190292246A1, “COMBINATION THERAPY OF A CELL BASED THERAPY AND A MICROGLIA IMHIBITOR” (JUNO THERAPEUTICS, INC., priority 2016, published 2019)
